From the supplement of paper PMC10883282

Legend:
Assay in all cases: relative viability vs DMSO control (72 h) (fraction); higher = more viable cells
[1] = tested on: G401
Procedure, shortened: (§1)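 Sarcoma cell lines went into 384-well plates at densities chosen to reach 80–90% confluence. After 24 h, each well received 2.5 µl of serially diluted compound, with source plates running from 10 mM to 0.0002 mM, and the plates were kept 72 h at 37 °C, 5% CO2, alongside 0.1% DMSO vehicle and a 5 µM positive control. Relative viability was derived from ATPLite readings as percent growth and averaged over up to triplicate wells. The data were then rescaled so that 1 stands for full and 0 for none.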

[2] = tested on: SK-ES-1
Procedure, shortened: as §1

[3] = tested on: SYO-1
Procedure, shortened: as §1

[4] = tested on: HS729
Procedure, shortened: as §1

[5] = tested on: SW872
Procedure, shortened: as §1

[6] = tested on: SK-LMS-1
Procedure, shortened: as §1

[7] = tested on: RD
Procedure, shortened: as §1

[8] = tested on: VA-ES-BJ
Procedure, shortened: as §1

[9] = tested on: MES-SA
Procedure, shortened: as §1

[10] = tested on: SW684
Procedure, shortened: as §1

[11] = tested on: KHOS-NP
Procedure, shortened: as §1

[12] = tested on: A204
Procedure, shortened: as §1

Cc1ccc(NC(=O)c2ccc(CN3CCN(C)CC3)cc2)cc1Nc1nccc(-c2cccnc2)n1 [Imatinib]
Details | relative viability
[1], 0.00017 µM | 0.963
[1], 0.00051 µM | 0.988
[1], 0.00152 µM | 0.958
[1], 0.00457 µM | 0.938
[1], 0.01372 µM | 0.956
[1], 0.04115 µM | 0.945
[1], 0.1235 µM | 0.951
[1], 0.3704 µM | 0.946
[1], 1.111 µM | 0.925
[1], 3.333 µM | 0.823
[1], 10 µM | 0.518
[2], 0.00017 µM | 0.937
[2], 0.00051 µM | 0.98
[2], 0.00152 µM | 0.9529
[2], 0.00457 µM | 0.9471
[2], 0.01372 µM | 0.983
[2], 0.04115 µM | 0.9614
[2], 0.1235 µM | 0.977
[2], 0.3704 µM | 0.97
[2], 1.111 µM | 0.957
[2], 3.333 µM | 0.841
[2], 10 µM | 0.62
[3], 0.00017 µM | 0.98
[3], 0.00051 µM | 0.974
[3], 0.00152 µM | 0.965
[3], 0.00457 µM | 0.964
[3], 0.01372 µM | 0.948
[3], 0.04115 µM | 0.907
[3], 0.1235 µM | 0.804
[3], 0.3704 µM | 0.744
[3], 1.111 µM | 0.704
[3], 3.333 µM | 0.63
[3], 10 µM | 0.155
[4], 0.00017 µM | 0.972
[4], 0.00051 µM | 0.996
[4], 0.00152 µM | 1.02
[4], 0.00457 µM | 0.991
[4], 0.01372 µM | 0.977
[4], 0.04115 µM | 0.985
[4], 0.1235 µM | 0.993
[4], 0.3704 µM | 0.945
[4], 1.111 µM | 0.917
[4], 3.333 µM | 0.86
[4], 10 µM | 0.522
[5], 0.00017 µM | 0.973
[5], 0.00051 µM | 0.963
[5], 0.00152 µM | 0.954
[5], 0.00457 µM | 0.971
[5], 0.01372 µM | 0.992
[5], 0.04115 µM | 0.968
[5], 0.1235 µM | 0.969
[5], 0.3704 µM | 0.976
[5], 1.111 µM | 0.982
[5], 3.333 µM | 0.916
[5], 10 µM | 0.627
[6], 0.00017 µM | 1.02
[6], 0.00051 µM | 1.02
[6], 0.00152 µM | 1.04
[6], 0.00457 µM | 1.02
[6], 0.01372 µM | 1.06
[6], 0.04115 µM | 1.07
[6], 0.1235 µM | 1.05
[6], 0.3704 µM | 1.08
[6], 1.111 µM | 1.08
[6], 3.333 µM | 1.11
[6], 10 µM | 0.635
[7], 0.00017 µM | 0.964
[7], 0.00051 µM | 0.974
[7], 0.00152 µM | 0.952
[7], 0.00457 µM | 0.967
[7], 0.01372 µM | 0.976
[7], 0.04115 µM | 0.983
[7], 0.1235 µM | 0.95
[7], 0.3704 µM | 0.943
[7], 1.111 µM | 1.01
[7], 3.333 µM | 1
[7], 10 µM | 0.596
[8], 0.00017 µM | 1.02
[8], 0.00051 µM | 1.029
[8], 0.00152 µM | 1.04
[8], 0.00457 µM | 1.024
[8], 0.01372 µM | 1.01
[8], 0.04115 µM | 1.01
[8], 0.1235 µM | 1.01
[8], 0.3704 µM | 1.02
[8], 1.111 µM | 1.02
[8], 3.333 µM | 0.9831
[8], 10 µM | 0.807
[9], 0.00017 µM | 0.966
[9], 0.00051 µM | 0.988
[9], 0.00152 µM | 0.992
[9], 0.00457 µM | 0.9838
[9], 0.01372 µM | 0.985
[9], 0.04115 µM | 0.9942
[9], 0.1235 µM | 0.997
[9], 0.3704 µM | 1.02
[9], 1.111 µM | 1.01
[9], 3.333 µM | 0.905
[9], 10 µM | 0.658
[10], 0.00017 µM | 0.968
[10], 0.00051 µM | 0.9679
[10], 0.00152 µM | 0.985
[10], 0.00457 µM | 1.02
[10], 0.01372 µM | 0.948
[10], 0.04115 µM | 0.9868
[10], 0.1235 µM | 1.01
[10], 0.3704 µM | 1.02
[10], 1.111 µM | 1.03
[10], 3.333 µM | 0.973
[10], 10 µM | 0.59
[11], 0.00017 µM | 1.01
[11], 0.00051 µM | 1.001
[11], 0.00152 µM | 1.01
[11], 0.00457 µM | 1
[11], 0.01372 µM | 1.02
[11], 0.04115 µM | 0.997
[11], 0.1235 µM | 1.03
[11], 0.3704 µM | 1.01
[11], 1.111 µM | 1.01
[11], 3.333 µM | 0.8795
[11], 10 µM | 0.609
[12], 0.00017 µM | 1.01
[12], 0.00051 µM | 1.01
[12], 0.00152 µM | 0.993
[12], 0.00457 µM | 0.99
[12], 0.01372 µM | 0.95
[12], 0.04115 µM | 0.87
[12], 0.1235 µM | 0.738
[12], 0.3704 µM | 0.491
[12], 1.111 µM | 0.389
[12], 3.333 µM | 0.312
[12], 10 µM | 0.196
